Tested on: IPOHE
Assay: Postemergence foliar-applied greenhouse weed control, direct-seeded rice system
Type: in vivo, Ipomoea hederacea Jacq.
From the text: Seeds or nutlets of the desired test plant species were planted in a soil matrix prepared by mixing a loam or sandy loam soil (e.g., 28.6 percent silt, 18.8 percent clay, and 52.6 percent sand, with a pH of about 5.8 and an organic matter content of about 1.8 percent) and calcareous grit in an 80 to 20 ratio. The soil matrix was contained in plastic pots with a volume of 1 quart and a surface area of 83.6 square centimeters (cm^2). When required to ensure good germination and healthy plants, a fungicide treatment and/or other chemical or physical treatment was applied. The plants were grown for 8-22 days in a greenhouse with an approximate 14 h photoperiod which was maintained at about 29° C. during the day and 26° C. during the night. Nutrients (Peters Excel® 15-5-15 5-Ca 2-Mg and iron chelate) were applied in the irrigation solution as needed and water was added on a regular basis. Supplemental lighting was provided with overhead metal halide 1000-Watt lamps as necessary. The plants were employed for testing when they reached the first through fourth true leaf stage.
Treatments consisted of the acid or esters of 4-amino-3-chloro-5-fluoro-6-(4-chloro-2-fluoro-3-methoxy-phenyl)pyridine-2-carboxylic acid (Compound A), each formulated as an SC (suspension concentrate), and various herbicidal components alone and in combination. Forms of compound A were applied on an acid equivalent basis.
Other herbicidal components were applied on an active ingredient basis and included diamuron formulated as an EC (emulsifiable concentrate) and oxaziclomefone (technical grade material).
Treatment requirements were calculated based upon the rates being tested, the concentration of active ingredient or acid equivalent in the formulation, and a 12 mL application volume at a rate of 187 L/ha.
For treatments comprised of formulated compounds, measured amounts of compounds were placed individually in 25 mL glass vials and diluted in a volume of 1.25% (v/v) Agri-Dex® crop oil concentrated to obtain 12× stock solutions. […] Application solutions were prepared by adding an appropriate amount of each stock solution (e.g., 1 mL) and diluted to the appropriate final concentrations with the addition of 10 mL of an aqueous mixture of 1.25% (v/v) crop oil concentrate so that the final spray solutions contained 1.25+/−0.05% (v/v) crop oil concentrate.
For treatments comprised of technical compounds, weighed amounts can be placed individually in 25 mL glass vials and dissolved in a volume of 97:3 v/v acetone/DMSO to obtain 12× stock solutions. […] Application solutions can be prepared by adding an appropriate amount of each stock solution (e.g., 1 mL) and diluted to the appropriate final concentrations with the addition of 10 mL of an aqueous mixture of 1.5% (v/v) crop oil concentrate so that the final spray solutions contain 1.25% (v/v) crop oil concentrate. When technical materials are used, the concentrated stock solutions can be added to the spray solutions so that the final acetone and DMSO concentrations of the application solutions are 16.2% and 0.5%, respectively.
For treatments comprised of formulated and technical compounds, weighed amounts of the technical materials were placed individually in 25 mL glass vials and dissolved in a volume of 97:3 v/v acetone/DMSO to obtain 12× stock solutions, and measured amounts of the formulated compounds were placed individually in 25 mL glass vials and diluted in a volume of 1.5% (v/v) crop oil concentrate or water to obtain 12× stock solutions. […] Application solutions were prepared by adding an appropriate amount of each stock solution (e.g., 1 mL) and diluted to the appropriate final concentrations with the addition of an appropriate amount of an aqueous mixture of 1.5% (v/v) crop oil concentrate so that the final spray solutions contained 1.25% (v/v) crop oil concentrate. […]

COc1c(Cl)ccc(-c2nc(C(=O)OCc3ccccc3)c(Cl)c(N)c2F)c1F [Compound A Benzyl Ester]
Visual Weed Control (%) - 20 DAA IPOHE Obs (Compound A Benzyl Ester 4.38 gae/ha alone): 10% | Visual Weed Control (%) - 20 DAA IPOHE Obs (Compound A Benzyl Ester 8.75 gae/ha alone): 25% | Visual Weed Control (%) - 20 DAA IPOHE Obs (Compound A Benzyl Ester 17.5 gae/ha alone): 50%
